Assay results as given in patent US20200237759A1, “DOSAGE REGIME AND METHOD FOR TREATING PULMONARY ARTERIAL HYPERTENSION” (Altavant Sciences GmbH, priority 2019, published 2020).
Values joined by “and” are separate entries in the source; they are usually repeats but may differ in a detail not shown here. Equal entries are not always repeated.

Assay: Part 2 MAD plasma pharmacokinetics, BID oral KAR5585 for 14 days
[1] = 100 mg (Cohort 2) to 400 mg (Cohort 4) BID fed, 4-fold increase in dose
[2] = 100 mg/dose BID Fasted, Cohort 1, Day 1 AM
[3] = 100 mg/dose BID Fasted, Cohort 1, Day 14
[4] = 100 mg/dose BID Fed, Cohort 2, Day 1 AM
[5] = 100 mg/dose BID Fed, Cohort 2, Day 1 PM
[6] = 100 mg/dose BID Fed, Cohort 2, Day 7 AM
[7] = 100 mg/dose BID Fed, Cohort 2, Day 7 PM
[8] = 100 mg/dose BID Fed, Cohort 2, Day 14
[9] = 200 mg/dose BID Fed, Cohort 3, Day 1 AM
[10] = 400 mg/dose BID Fed, Cohort 4, Day 1 AM
[11] = 400 mg/dose BID Fed, Cohort 4, Day 1 PM
[12] = 400 mg/dose BID Fed, Cohort 4, Day 7 AM
[13] = 400 mg/dose BID Fed, Cohort 4, Day 7 PM
[14] = 400 mg/dose BID Fed, Cohort 4, Day 14 (last block, /D fits 400 mg)
[15] = Day 7 AM, blank dose cell under 400/Fed Cohort 4, /D fits 200 mg Fed Cohort 3
[16] = Day 7 AM, blank dose cell under 400/Fed Cohort 4, likely 200 mg Fed Cohort 3
[17] = Day 7 PM (3rd 7/PM block), blank dose cell under 400/Fed Cohort 4, /D fits 200 mg Fed Cohort 3
[18] = Day 7 PM, blank dose cell under 400/Fed Cohort 4, /D fits 200 mg Fed Cohort 3
[19] = Day 14 (first Day 14 block), blank dose cell under 400/Fed Cohort 4, /D fits 200 mg Fed Cohort 3

Description: Food effect was to be evaluated in Part 1, Period 2.
Part 2 (MAD): BID doses (separated by approximately 12 hours on Days 1 to 13) and a single AM dose on Day 14. One or more of the MAD Cohort could have been dosed once daily (QD).
Pharmacokinetic data were to be summarized descriptively.

## CCOC(=O)[C@@H]1CC2(CCN(c3cc(O[C@H](c4ccc(Cl)cc4-c4ccccc4)C(F)(F)F)nc(N)n3)CC2)CN1 [KAR5585, (S)-ethyl 8-(2-amino-6-((R)-1-(5-chloro-[1,1′-biphenyl]-2-yl)-2,2,2-trifluoroethoxy)pyrimidin-4-yl)-2,8-diazaspiro[4.5]decane-3-carboxylate]
[1]
  increase in mean AUC0-12, Day 1: 5.1 fold
  increase in mean AUC0-12, Day 14: 3.1 fold
  increase in mean AUC0-24, Day 1: 3.6 fold
  increase in mean AUC0-24, Day 14: 3.6 fold and 3.63 fold
  increase in mean Cmax, Day 1: 4.4 fold
  increase in mean Cmax, Day 14: ~3.0 fold
100 mg KAR5585 BID, Part 2 Cohort 1 (fasted state)
  time to peak plasma concentrations (range), Day 1: 0.75 to 2.0 h
100 mg KAR5585 BID, fed
  VZ/F, Day 14: 3520 L
  mean VZ/F, Day 1: 4100 L
[2]
  AUC0-12 (Mean): 62.8 ng·h/mL
  Cmax (Mean): 16.7 ng/mL
  Vz/F (Mean): 4900 L
  tmax (Median): 1.5 h
[3]
  AUC0-24 (Mean): 99.8 ng·h/mL
  C24 (Geo. Mean): BLQ
  C24 (Mean): BLQ
  Cmax (Mean): 21.3 ng/mL
  Vz/F (Geo. Mean): 4230 L
  Vz/F (Mean): 4420 L
  t1/2 (Mean): 2.49 h
  tmax (Median): 1.0 h
[4]
  AUC0-12 (Geo. Mean): 51.2 ng·h/mL
  AUC0-12 (Mean): 55.5 ng·h/mL
  AUC0-∞ (Geo. Mean): 51.7 ng·h/mL
  AUC0-∞ (Mean): 55.9 ng·h/mL
  Cmax (Geo. Mean): 17.7 ng/mL
  Cmax (Mean): 18.4 ng/mL
  Vz/F (Geo. Mean): 3830 L
  Vz/F (Mean): 4100 L
  t1/2 (Geo. Mean): 1.37 h
  tmax (Median): 0.75 h
[5]
  AUC0-∞ (Geo. Mean): 152 ng·h/mL
  Cmax (Geo. Mean): 39.8 ng/mL
  Cmax (Mean): 44.1 ng/mL
  Vz/F (Geo. Mean): 1730 L
  Vz/F (Mean): 1820 L
  t1/2 (Geo. Mean): 1.82 h
  tmax (Median): 2.0 h
[6]
  AUC0-12 (Geo. Mean): 127 ng·h/mL
  AUC0-∞ (Geo. Mean): 137 ng·h/mL
  Cmax (Geo. Mean): 29.8 ng/mL
  Cmax (Mean): 31.3 ng/mL
  Vz/F (Geo. Mean): 3210 L
  Vz/F (Mean): 3360 L
  t1/2 (Geo. Mean): 2.82 h
  tmax (Median): 2.0 h
[7]
  AUC0-12 (Geo. Mean): 142 ng·h/mL
  AUC0-12 (Mean): 145 ng·h/mL
  AUC0-24 (Geo. Mean): 278 ng·h/mL
  AUC0-∞ (Geo. Mean): 168 ng·h/mL
  Cmax (Mean): 28.4 ng/mL
  Vz/F (Geo. Mean): 3550 L
  Vz/F (Mean): 3910 L
  t1/2 (Mean): 3.80 h
  tmax (Median): 4.0 h
[8]
  AUC0-12 (Geo. Mean): 114 ng·h/mL
  AUC0-24 (Geo. Mean): 121 ng·h/mL
  AUC0-24 (Mean): 122 ng·h/mL
  AUC0-∞ (Geo. Mean): 121 ng·h/mL
  C24 (Geo. Mean): BLQ
  C24 (Mean): BLQ
  Cmax (Geo. Mean): 28.5 ng/mL
  Cmax (Mean): 30.0 ng/mL
  Vz/F (Geo. Mean): 3330 L
  Vz/F (Mean): 3520 L
  t1/2 (Geo. Mean): 2.64 h
  t1/2 (Mean): 2.73 h
  tmax (Median): 1.8 h
200 mg KAR5585 BID, fed
  VZ/F, Day 14: 7010 L
  mean VZ/F, Day 1: 3220 L
[9]
  Cmax (Mean): 87.8 ng/mL
  Vz/F (Geo. Mean): 3130 L
  Vz/F (Mean): 3220 L
  t1/2 (Geo. Mean): 2.81 h
  t1/2 (Mean): 2.91 h
  tmax (Median): 1.5 h
400 mg KAR5585 BID, fed
  VZ/F, Day 14: 10300 L
  mean VZ/F, Day 1: 6800 L
  tmax Day 7 evening dose: 6 h
[10]
  AUC0-12 (Geo. Mean): 25.3 ng·h/mL
  AUC0-12 (Mean): 2.81 ng·h/mL
  AUC0-∞ (Geo. Mean): 272 ng·h/mL
  AUC0-∞ (Mean): 305 ng·h/mL
  Cmax (Mean): 81.8 ng/mL
  Vz/F (Mean): 6800 L
  t1/2 (Geo. Mean): 3.00 h
  tmax (Median): 2.0 h
[11]
  AUC0-∞ (Geo. Mean): 633 ng·h/mL
  Cmax (Geo. Mean): 1100 ng/mL
  Vz/F (Geo. Mean): 3820 L
  Vz/F (Mean): 4030 L
  t1/2 (Geo. Mean): 4.18 h
  t1/2 (Mean): 4.33 h
  tmax (Median): 3.0 h
[12]
  AUC0-12 (Geo. Mean): 473 ng·h/mL
  AUC0-∞ (Geo. Mean): 577 ng·h/mL
  Cmax (Geo. Mean): 91.3 ng/mL
  Vz/F (Geo. Mean): 5680 L
  Vz/F (Mean): 6220 L
  t1/2 (Mean): 4.90 h
  tmax (Median): 2.0 h
[13]
  AUC0-12 (Geo. Mean): 394 ng·h/mL
  AUC0-∞ (Geo. Mean): 534 ng·h/mL
  Cmax (Mean): 69.0 ng/mL
  Vz/F (Geo. Mean): 6770 L
  Vz/F (Mean): 6950 L
  tmax (Median): 6.0 h
[14]
  AUC0-12 (Geo. Mean): 359 ng·h/mL
  AUC0-24 (Geo. Mean): 433 ng·h/mL
  AUC0-24 (Mean): 444 ng·h/mL
  AUC0-∞ (Geo. Mean): 465 ng·h/mL
  Cmax (Geo. Mean): 85.3 ng/mL
  Cmax (Mean): 89.0 ng/mL
  Vz/F (Geo. Mean): 9780 L
  Vz/F (Mean): 10300 L
  t1/2 (Geo. Mean): 6.08 h
  t1/2 (Mean): 6.45 h
  tmax (Median): 1.5 h
BID oral KAR5585 for 14 days
  study day by which steady-state plasma levels were achieved: ≤ 7 days
Day 7 AM
  tmax (Median): 3.0 h
[15]
  t1/2 (Geo. Mean): 4.21 h
  t1/2 (Mean): 4.30 h
[16]
  AUC0-12 (Geo. Mean): 217 ng·h/mL
  AUC0-12 (Mean): 230 ng·h/mL
  AUC0-∞ (Geo. Mean): 256 ng·h/mL
  AUC0-∞ (Mean): 273 ng·h/mL
  Vz/F (Geo. Mean): 5610 L
  Vz/F (Mean): 5960 L
Day 7 PM
  tmax (Median): 6.0 h
[17]
  AUC0-12 (Geo. Mean): 201 ng·h/mL
  AUC0-24 (Geo. Mean): 414 ng·h/mL
  AUC0-∞ (Geo. Mean): 289 ng·h/mL
  AUC0-∞ (Mean): 290 ng·h/mL
  Vz/F (Geo. Mean): 7000 L
  Vz/F (Mean): 8710 L
[18]
  AUC0-12 (Geo. Mean): 333 ng·h/mL
  AUC0-24 (Geo. Mean): 583 ng·h/mL
  AUC0-∞ (Geo. Mean): 406 ng·h/mL
  Cmax (Mean): 42.6 ng/mL
  Vz/F (Geo. Mean): 3010 L
  Vz/F (Mean): 3120 L
[19]
  AUC0-24 (Geo. Mean): 199 ng·h/mL
  AUC0-24 (Mean): 212 ng·h/mL
  C24 (Geo. Mean): BLQ
  C24 (Mean): BLQ
  Cmax (Geo. Mean): 43.5 ng/mL
  Cmax (Mean): 48.8 ng/mL
  Vz/F (Geo. Mean): 6430 L
  Vz/F (Mean): 7010 L
